Source: paper PMC12190436, “5-Ene-2-arylaminothiazol-4(5H)-ones Induce Apoptosis in Breast Cancer Cells” (Cells, 2025)

Key:
A172 = assay: MTT cell viability assay; type: cell-based; details: Homo sapiens
Excerpt: (§1) All of the tested cell lines were acquired from the American Type Culture Collection (ATCC, Manassas, VA, USA), including human breast cancer cell lines (MCF-7, MDA-MB-231), human gastric cancer cell line (AGS), human colorectal cancer cell lines (HT-29, DLD-1), human glioblastoma cancer cell lines (T98G, A172), mouse astrocyte type I clone (C8-D1A), human normal epithelial breast cells (MCF-10A) and primary dermal fibroblast (HDFa). Such cell lines as AGS, MCF-7, MDA-MB-231, A172, T98G, C8-D1A, and primary dermal fibroblast (HDFa) were cultured in complete medium–DMEM (Corning, Kennebunk, ME, USA). RPMI-1640 (ATCC, Manassas, VA, USA) was used for the DLD-1 cell line, and McCoy’s 5A (PAN-Biotech, Aidenbach, Germany) for the HT-29 cell line. To all utilized media additionally was added 10% fetal bovine serum (FBS) (Eurx, Gdansk, Poland) and 1% penicillin and streptomycin solution (Corning, Kennebunk, ME, USA). MCF-10A cells were incubated in MEGM (Mammary Epithelial Cell Growth Medium) BulletKit supplemented with penicillin/streptomycin cocktail and 5% horse serum. All cells were cultured at 37 °C in an atmosphere with 5% CO₂ in tissue culture dishes (Sarstedt, Numbrecht, Germany). For experiments, cells were washed with phosphate-buffered saline (PBS) (Corning, Kennebunk, ME, USA) followed by the addition of 0.05% trypsin with 0.02% EDTA (Corning, Kennebunk, ME, USA). Scepter 3.0 cell counter (Merck Millipore, Burlington, MA, USA) was applied before each seeding to calculate the number of cells. For the next analyses, cells were reseeded in 6-well plates, 24-well plates, and 96-well plates.
(§2) MTT (3-(4,5-dimethylthiazol-2-yl)-2,5-diphenyltetrazolium bromide) assay method was utilized to analyze compound effects on cell viability. All cell lines were seeded in 96-well plates with 1 × 10^4 cells per well. After 24 h, cells were treated with the tested compounds and reference drug at concentrations of 0.1, 1, 2.5, 5, 10, and 20 µM for 24, 48, or 72 h. Next, a solution of 3-(4,5-dimethyl-2-thiazolyl)-2,5-diphenyl-2H-tetrazolium bromide (Sigma-Aldrich, St. Louis, MO, USA) in PBS with a concentration of 5 mg/mL was prepared. After the incubation with tested compounds, 10 µL of the prepared MTT solution was applied to each well, followed by 2 h of incubation at 37 °C. Next, cells underwent lysis by adding 100 µL of pre-prepared lysing buffer (containing 25 mM HCl, 2% acetic acid, 3% DMF, and 5% SDS, with a pH of 4.7). The absorbance was measured using a UV-VIS Helios Gamma (Unicam/ThermoFisher Scientific Inc., Cleveland, OH, USA) at 570 nm wavelength. The cells incubated with vehicle substance (0.1% DMSO) were taken as controls.
(§3) To investigate the cytotoxic potential of the newly synthesized compounds, a comprehensive assessment was conducted utilizing the MTT assay. This assay was applied on a diverse panel of cell lines, such as human breast cancer cell lines (MCF-7 and MDA-MB-231), human gastric cancer cell line (AGS), human colorectal cancer cell lines (HT-29 and DLD-1), human glioblastoma cancer cell lines (T98G and A172), mouse astrocyte type I clone cells (C8-D1A), primary dermal fibroblast (HDFa), and human normal breast cells (MCF-10A) for 24, 48, and/or 72 h.

AGS = assay: MTT cell viability assay; type: cell-based; details: Homo sapiens
Excerpt: as §1, §2, §3

DLD-1 = assay: MTT cell viability assay; type: cell-based; details: Homo sapiens
Excerpt: as §1, §2, §3

HT-29 = assay: MTT cell viability assay; type: cell-based; details: Homo sapiens
Excerpt: as §1, §2, §3

MCF-7 = assay: MTT cell viability assay; type: cell-based; details: Homo sapiens
Excerpt: as §1, §2, §3

MDA-MB-231 = assay: MTT cell viability assay; type: cell-based; details: Homo sapiens
Excerpt: as §1, §2, §3

[1] = system: Primary Dermal Fibroblast (HDFa); assay: MTT cell viability assay; type: cell-based; details: Homo sapiens, normal cells
Excerpt: as §1, §2, §3

T98G = assay: MTT cell viability assay; type: cell-based; details: Homo sapiens
Excerpt: as §1, §2, §3

MCF-7 cells = assay: Annexin V-FITC/propidium iodide flow cytometry; type: cell-based, human; details: 24 h
Experimental: The MCF-7 cells were seeded on 6-well plates (1 × 10^5 cells per well) and incubated for 24 h. Afterwards, the cells were washed, and tested compounds (Les-6416, Les-6418, Les-6381, Les-6423, and Les-6424) were added in a concentration of 5 µM. The reference drug doxorubicin hydrochloride was applied in a concentration of 0.5 µM. The cells were incubated with the compounds for 24 h. Afterwards, the cells were washed several times with cold PBS and the cell suspensions were prepared in the binding buffer from the kit at a concentration of 1 × 10^6 cells/mL. A total of 100 µL of suspension was collected from each sample and transferred to the tubes. After that, 5 µL of Annexin V-FITC and 5 µL of propidium iodide were added. After 15 min of incubation at room temperature in a dark environment, the content of the tubes was filled with binding buffer up to 500 µL and assessed by BD FACSCanto II flow cytometer (Becton Dickinson Biosciences, San Jose, CA, USA). A total of 1 × 10^4 events were measured for each sample. The results were investigated by applying FACSDiva software Version 6.1.3. (BD Biosciences Systems, San Jose, CA, USA).
To assess the effects of novel compounds on apoptosis, we utilized flow cytometry analysis with Annexin V-FITC and Propidium Iodide double staining. In this way, we could distinguish between different cell populations based on their state: unstained or alive cells, cells stained with propidium iodide or necrotic cells, cells only stained with FITC-labeled annexin V or early apoptotic cells, and cells stained with both annexin V and propidium iodide or late apoptotic cells.

With `COc1cc(NC2=NC(=O)C(=Cc3ccco3)S2)cc(OC)c1OC` [Les-6424, 5-(Furan-2-ylmethylene)-2-((3,4,5-trimethoxyphenyl)amino)thiazol-4(5H)-one] the IC50 (A172; A 172, A172 24 h) was > 20 µM, the IC50 (A172; A 172, A172 48 h) was > 20 µM and the IC50 (AGS; AGS 24 h) was > 20 µM. For the same molecule, the IC50 (AGS; AGS 48 h) was > 20 µM, the IC50 (DLD-1; DLD-1 24 h) was > 20 µM and the IC50 (DLD-1; DLD-1 48 h) was > 20 µM. The IC50 (HT-29; HT-29 24 h) was > 20 µM, the IC50 (HT-29; HT-29 48 h) was > 20 µM and the IC50 (MCF-7; MCF7, MCF-7 24 h) was > 20 µM. The IC50 (MCF-7; MCF7, MCF-7 48 h) was > 20 µM, the IC50 (MCF-7; MCF7, MCF-7 72 h) was > 20 µM and the IC50 (MDA-MB-231; MDA-MB-231 24 h) was > 20 µM. For the same molecule, the IC50 (MDA-MB-231; MDA-MB-231 48 h) was > 20 µM, the IC50 (MDA-MB-231; MDA-MB-231 72 h) was > 20 µM and the IC50 ([1]; HDFa 24 h) was > 20 µM. For the same molecule, the IC50 ([1]; HDFa 48 h) was > 20 µM, the IC50 ([1]; HDFa 72 h) was > 20 µM and the IC50 (T98G; T98G 24 h) was > 20 µM. The IC50 (T98G; T98G 48 h) was > 20 µM, the “proapoptotic effect in comparison to the control” value (MCF-7 cells; 5 µM) was “did not have any statistically significant results” and the viability at 5 µM (MCF-7 cells; Homo sapiens, MCF7, 5 µM, read-out: Viable cells, cell population) was 90.4%.
